The term IC50 denotes the concentration that gives 50% inhibition.

The target of this assay is T1, serotonin receptor (Rattus norvegicus, UniProt P19327).
T1 construct: To a cerebral cortex nucleated from a Wistar-strain male rat; from tissue; host or cells: cerebral cortex of male Wistar rat (membrane preparation)
T1 sequence (P19327 1-422): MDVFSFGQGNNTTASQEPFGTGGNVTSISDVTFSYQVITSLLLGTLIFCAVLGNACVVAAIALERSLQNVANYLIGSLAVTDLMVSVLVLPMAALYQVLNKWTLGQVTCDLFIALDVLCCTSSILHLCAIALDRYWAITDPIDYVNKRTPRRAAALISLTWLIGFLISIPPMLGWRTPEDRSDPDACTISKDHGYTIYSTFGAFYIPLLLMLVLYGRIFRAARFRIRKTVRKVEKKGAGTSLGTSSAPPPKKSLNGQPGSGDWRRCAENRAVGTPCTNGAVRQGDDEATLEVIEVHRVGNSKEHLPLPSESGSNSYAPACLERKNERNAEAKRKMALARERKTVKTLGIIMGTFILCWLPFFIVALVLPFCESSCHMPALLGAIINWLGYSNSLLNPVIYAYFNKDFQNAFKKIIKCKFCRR
Description: Affinity for serotonin receptor, [3H]8-OHDPAT binding test in rat cerebral cortex. Details: species or system rat (Wistar-strain male). The settings on record: [3H]8-OHDPAT 0.4 nM; rat cerebral cortex membranes; pH 7.4; 25° C., 30 minutes; read-out: [^3 H]-8-OH-DPAT IC50. How it is done: The experiment was carried out according to the method of S. T. Perouka (J. Neurochem., 47, 529-540 (1986)).
To a cerebral cortex nucleated from a Wistar-strain male rat was added 50 mM Tris-HCl (pH 7.7) buffer, and the mixture was homogenized by a Polytron®. The homogenate was centrifuged at 40,000 G for 10 minutes, and the same buffer was added to the precipitate obtained, followed by homogenization and incubation at 37° C. for 30 minutes. The suspension was again subjected to centrifugation at 40,000 G for 10 minutes, and the same buffer was added to the precipitate, followed by homogenization and a further centrifugation at 40,000 G for 10 minutes. To the final precipitate obtained was added 50 mM Tris-HCl (10 μM pargyline, 4 mM CaCl2 0.1% ascorbic acid) (pH 7.4), and the mixture was homogenized and used for the binding test. The [^3 H]8-OHDPAT used for the binding test was 0.4 nM, with the protein amount being 0.4 to 0.6 mg/ml and the total amount 1 ml. After incubation at 25° C. for 30 minutes, the mixture was filtered by the filtration method, using the Whatman GF/B filter, and the filter was washed 3 times with 5 ml of the same buffer. To the filter was added a scintillation cocktail, followed by a measurement by a liquid scintillation counter.
For `O=C1CNc2ccccc2C(=O)N1CCCCN1CCN(c2ccccn2)CC1` [Example 21, 4-(4-(4-(2-pyridyl)piperazinyl)butyl)-2,3,4,5-tetrahydro-1,4-benzodiazepine-3,5-dione], the IC50 worked out at 13.3 nM.
Under `O=C1CNc2ccccc2C(=O)N1CCCCN1CCN(c2ncccn2)CC1` [Example 22, 4-(4-(4-(2-pyrimidinyl)piperazinyl)butyl)-2,3,4,5-tetrahydro-1,4-benzodiazepine-3,5-dione] stands 67.3 nM; under `CN1CC(=O)N(CCCCN2CCN(c3ccccn3)CC2)C(=O)c2ccccc21` [Example 24, 1-methyl-4-(4-(4-(2-pyridyl)piperazinyl)butyl)-2,3,4,5-tetrahydro-1,4-benzodiazepine-3,5-dione], 61.4 nM; under `O=C1CCc2ccccc2C(=O)N1CCCCN1CCN(c2ncccn2)CC1` [Example 28, 2-(4-(4-(2-pyrimidinyl)piperazinyl)butyl)-1,3,4,5-tetrahydro-2-benzazepine-1,3-dione], 58.4 nM.
With `CN1CC(=O)N(CCCCN2CCN(c3ncccn3)CC2)C(=O)c2ccccc21` [Example 25] the figure was 270 nM.
With `O=C1CSc2ccccc2C(=O)N1CCCCN1CCN(c2ccccn2)CC1` [Example 18, 4-(4-(4-(2-pyridyl)piperazinyl)butyl)-2,3,4,5-tetrahydro-1,4-benzothiazeoine-3,5-dione] the figure was 3.28 nM; with `O=C1CSc2ccccc2C(=O)N1CCCCN1CCN(c2ncccn2)CC1` [Example 19, 4-(4-(4-(2-pyrimidinyl)piperadinyl)butyl)-2,3,4,5-tetrahydro-1,4-benzothiazepine-3,5-dione], 14.3 nM; with `O=C1CCc2ccccc2C(=O)N1CCCCN1CCN(c2ccccn2)CC1` [Example 27, 2-(4-(4-(2-pyridyl)piperazinyl)butyl)-1,3,4,5-tetrahydro-2-benzazepine-1,3-dione], 17.1 nM.
In the case of `O=C1CSc2ccccc2C(=O)N1CCCCN1CCN(c2ccccc2)CC1` [Example 17], the IC50 came out at 9.29 nM.

(Values after US5312625A, “Fused 7-membered cyclic compound and antipsychotic preparation containing the same” (Suntory Limited, priority 1990, dated 1994).)
